# Reference: ChEMBL document CHEMBL4806957, “Cdk8/cdk19 selective inhibitors and their use in anti-metastatic and chemopreventive methods for cancer” (2019)
# Activity calls are given as the source filed them. The rule behind the calls is not given here.
# Experiments:
# [1] = Solubility of compound in water at < 50 mM after 30 mins; assay type: physicochemical; settings: buffer, 0.5 h
# [2] = Solubility of compound in water at 10 mM after 30 mins; assay type: physicochemical; settings: buffer, 0.5 h, 10000 µM
# [3] = Solubility of compound in water at 50 mM after 30 mins; assay type: physicochemical; settings: buffer, 0.5 h, 50000 µM
# [4] = Toxicity in mouse xenografted with human MDA-MB-231 cells assessed as reduction in body weight at 1 mg/kg administered as single dose; assay type: organism-based; set-up: scale not given: the % may be the effect or the level left; settings: in vivo
# MDA-MB-468 [5] = assay: Antitumor activity against human MDA-MB-468 cells xenografted in nude mouse assessed as reduction in tumor growth at 4 mg/kg, ip administered daily for 30 days by caliper method; assay type: functional, organism-based; settings: time 30.0 day
# MDA-MB-231 [6] = assay: Antitumor activity against human MDA-MB-231 cells xenografted in SCID mouse assessed as reduction in tumor growth at 1 mg/kg, ip administered as single dose; assay type: functional, organism-based
# MDA-MB-468 [7] = assay: Antitumor activity against human MDA-MB-468 cells xenografted in nude mouse assessed as invasive tumor growth at 4 mg/kg, ip administered daily for 30 days by H and E staining based histological analysis; assay type: functional, organism-based; settings: time 30.0 day
# [8] = Toxicity in BALB/c mouse assessed as body weight gain at 40 mg/kg, ip administered with 5 daily doses and 2 days off and another 5 daily dosing schedule for 12 days; assay type: organism-based; settings: in vivo, 288 h, time 12 day
# [9] = Toxicity in BALB/c mouse assessed as decrease in kidney weight at 40 mg/kg, ip administered with 5 daily doses and 2 days off and another 5 daily dosing schedule for 12 days; assay type: organism-based; settings: in vivo, 288 h, time 12 day
# [10] = Toxicity in BALB/c mouse assessed as decrease in lymphocytes count at 40 mg/kg, ip administered with 5 daily doses and 2 days off and another 5 daily dosing schedule for 12 days; assay type: organism-based; set-up: scale not given: the % may be the effect or the level left; settings: in vivo, 288 h, time 12 day
# [11] = Toxicity in BALB/c mouse assessed as decrease in liver weight at 40 mg/kg, ip administered with 5 daily doses and 2 days off and another 5 daily dosing schedule for 12 days; assay type: organism-based; settings: in vivo, 288 h, time 12 day
# [12] = target: T1, Cyclin-dependent kinase 8 (Homo sapiens, UniProt P49336); assay: Inhibition of CDK8 (unknown origin)
# [13] = target: Cyclin-dependent kinase 9 (Homo sapiens, UniProt P50750); assay: Inhibition of CDK9 (unknown origin)
# MDA-MB-468 [14] = assay: Antitumor activity against human MDA-MB-468 cells xenografted in nude mouse assessed as reduction in tumor growth at 40 mg/kg, ip administered daily for 30 days by caliper method; assay type: functional, organism-based; settings: time 30.0 day
# MDA-MB-468 [15] = assay: Antitumor activity against human MDA-MB-468 cells xenografted in mouse assessed as reduction in tumor growth at 40 mg/kg, ip by caliper method; assay type: functional, organism-based
# [16] = AUC in rat at 40 mg/kg, ip; assay type: ADME, organism-based; set-up: dose 40 mg/kg; settings: in vivo
# [17] = Plasma concentration in mouse at 100 mg/kg administered via gavage; assay type: ADME, organism-based; settings: in vivo, po
# MDA-MB-157 = assay: Growth inhibition of human MDA-MB-157 cells after 5 days by MTT assay; assay type: functional, cell-based; settings: dose 0.078-10 µM, time 5.0 day
# MDA-MB-231 [18] = assay: Additive antitumor activity against human MDA-MB-231 cells xenografted in SCID mouse assessed as reduction in tumor growth at 40 mg/kg, ip administered as 5 daily doses in presence of doxorubicin; assay type: functional, organism-based
# [19] = target: T1, Cyclin-dependent kinase 8; assay: Inhibition of CDK8 (unknown origin) by Pro-Qinase assay
# [20] = target: T2, Catenin beta-1 (Homo sapiens) (UniProt P35222); assay: Inhibition of beta-catenin activity in human HCT116 cells assessed as reduction in TOPFlash promoter mediated luciferase expression; assay type: cell-based; settings: HCT-116, dose […]
# T2 sequence (whole entry): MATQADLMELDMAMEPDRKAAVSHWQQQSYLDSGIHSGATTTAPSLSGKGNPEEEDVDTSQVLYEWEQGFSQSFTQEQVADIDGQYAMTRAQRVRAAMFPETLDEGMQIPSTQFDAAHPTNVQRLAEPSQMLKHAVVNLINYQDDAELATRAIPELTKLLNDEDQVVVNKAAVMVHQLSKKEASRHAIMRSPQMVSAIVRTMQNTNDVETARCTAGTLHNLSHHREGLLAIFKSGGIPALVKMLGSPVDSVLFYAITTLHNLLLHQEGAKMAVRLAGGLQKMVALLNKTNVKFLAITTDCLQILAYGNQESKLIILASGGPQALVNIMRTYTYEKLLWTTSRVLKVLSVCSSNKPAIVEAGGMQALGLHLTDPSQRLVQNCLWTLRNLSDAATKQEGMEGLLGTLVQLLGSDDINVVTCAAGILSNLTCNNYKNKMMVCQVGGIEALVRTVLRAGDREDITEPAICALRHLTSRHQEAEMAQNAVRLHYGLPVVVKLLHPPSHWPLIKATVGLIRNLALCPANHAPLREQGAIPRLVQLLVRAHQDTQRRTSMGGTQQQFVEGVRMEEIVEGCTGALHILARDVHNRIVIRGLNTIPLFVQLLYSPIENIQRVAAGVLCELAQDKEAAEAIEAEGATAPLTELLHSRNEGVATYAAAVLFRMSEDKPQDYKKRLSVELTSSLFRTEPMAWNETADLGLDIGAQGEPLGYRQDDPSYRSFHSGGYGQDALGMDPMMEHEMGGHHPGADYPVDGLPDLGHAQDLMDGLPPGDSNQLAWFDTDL
# [21] = Toxicity in mouse xenografted with human MDA-MB-231 cells assessed as reduction in body weight at 40 mg/kg administered as 5 daily doses; assay type: organism-based; settings: in vivo
# MDA-MB-231 [22] = assay: Antitumor activity against human MDA-MB-231 cells xenografted in SCID mouse assessed as reduction in tumor growth at 40 mg/kg, ip administered as 5 daily doses; assay type: functional, organism-based
# 4T1 = assay: Growth inhibition of mouse 4T1 cells at 0.078 to 10 uM after 5 days by MTT assay; assay type: functional, cell-based; settings: dose 0.078-10 µM, time 5.0 day
# [23] = Toxicity in BALB/c mouse assessed as decrease in spleen weight at 40 mg/kg, ip administered with 5 daily doses and 2 days off and another 5 daily dosing schedule for 12 days; assay type: organism-based; set-up: scale not given: the % may be the effect or the level left; settings: in vivo, 288 h, time 12 day
# [24] = Toxicity in BALB/c mouse assessed as decrease in thymus weight at 40 mg/kg, ip administered with 5 daily doses and 2 days off and another 5 daily dosing schedule for 12 days; assay type: organism-based; settings: in vivo, 288 h, time 12 day
# MDA-MB-468 [25] = assay: Antitumor activity against human MDA-MB-468 cells xenografted in nude mouse assessed as slower appearance of palpable tumor pretreated with compound at 25 mg/kg, ip administered 5 daily dose followed by tumor injection and monitored every day; assay type: functional, organism-based
# MDA-MB-468 [26] = assay: Antitumor activity against human MDA-MB-468 cells xenografted in nude mouse assessed as non-invasive tumor growth at 40 mg/kg, ip administered daily for 30 days by H and E staining based histological analysis; assay type: functional, organism-based; settings: time 30.0 day
# A549 = assay: Antitumor activity against human A549 cells xenografted in CB-17 SCID mouse assessed as reduction in tumor growth pretreated with compound at 40 mg/kg, ip administered 5 daily dose followed by tumor injection and monitored twice a week starting from 7 days after post tumor injection to 24 days by caliper method; assay type: functional, organism-based; settings: time 24.0 day
# MDA-MB-468 [27] = assay: Growth inhibition of human MDA-MB-468 cells after 5 days by MTT assay; assay type: functional, cell-based; settings: dose 0.078-10 µM, time 5.0 day
# [28] = Toxicity in BALB/c mouse assessed as decrease in lung weight at 40 mg/kg, ip administered with 5 daily doses and 2 days off and another 5 daily dosing schedule for 12 days; assay type: organism-based; settings: in vivo, 288 h, time 12 day
# MDA-MB-468 [29] = assay: Antitumor activity against human MDA-MB-468 cells xenografted in mouse assessed as reduction in tumor growth pretreated with compound at 40 mg/kg, ip administered for 3 days followed by tumor injection by caliper method; assay type: functional, organism-based; settings: time 3.0 day
# MDA-MB-468 [30] = assay: Antitumor activity against human MDA-MB-468 cells xenografted in nude mouse assessed as reduction in tumor growth at 40 mg/kg, ip administered daily for 30 days in presence of doxorubicin by caliper method; assay type: functional, organism-based; settings: time 30.0 day
# [31] = Toxicity in BALB/c mouse assessed as decrease in brain weight at 40 mg/kg, ip administered with 5 daily doses and 2 days off and another 5 daily dosing schedule for 12 days; assay type: organism-based; settings: in vivo, 288 h, time 12 day
# [32] = target: T1, Cyclin-dependent kinase 8; assay: Inhibition of human CDK8 (M1 to T360 residues) expressed in bacterial expression system at 2000 nM by KINOMEscan assay relative to control
# [33] = target: Cyclin-dependent kinase 19 (Homo sapiens) (UniProt Q9BWU1); assay: Inhibition of human […] (M1 to N360 residues) expressed in bacterial expression system at 2000 nM by KINOMEscan assay relative to control
# MDA-MB-468 [34] = assay: Antitumor activity against human MDA-MB-468 cells xenografted in nude mouse assessed as non-invasive tumor growth at 40 mg/kg, ip administered daily for 30 days in presence of doxorubicin by H and E staining based histological analysis; assay type: functional, organism-based; settings: time 30.0 day
# [35] = target: T1, Cyclin-dependent kinase 8; assay: Inhibition of CDK8 in human HT1080 cells assessed as inhibition of IPTG-inducible p21 induced CMV-GFP expression by Hoechst 33342 staining-based fluorescence assay; assay type: cell-based; settings: HT-1080
# T1 sequence (P49336 whole entry): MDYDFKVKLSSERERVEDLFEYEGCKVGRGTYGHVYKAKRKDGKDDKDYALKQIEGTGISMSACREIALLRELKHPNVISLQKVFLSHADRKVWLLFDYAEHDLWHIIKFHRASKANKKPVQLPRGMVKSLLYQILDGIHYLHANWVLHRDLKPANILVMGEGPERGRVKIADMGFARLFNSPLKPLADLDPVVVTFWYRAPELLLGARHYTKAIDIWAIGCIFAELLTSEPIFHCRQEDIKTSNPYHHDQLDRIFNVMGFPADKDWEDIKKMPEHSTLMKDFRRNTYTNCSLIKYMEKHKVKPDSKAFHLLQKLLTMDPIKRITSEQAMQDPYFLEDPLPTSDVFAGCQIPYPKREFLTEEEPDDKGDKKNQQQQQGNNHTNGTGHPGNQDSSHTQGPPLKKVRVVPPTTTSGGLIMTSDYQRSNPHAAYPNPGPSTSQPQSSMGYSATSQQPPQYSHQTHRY
# Chain of Cyclin-dependent kinase 19 (Homo sapiens) (Q9BWU1 whole entry, the tested form may be a part): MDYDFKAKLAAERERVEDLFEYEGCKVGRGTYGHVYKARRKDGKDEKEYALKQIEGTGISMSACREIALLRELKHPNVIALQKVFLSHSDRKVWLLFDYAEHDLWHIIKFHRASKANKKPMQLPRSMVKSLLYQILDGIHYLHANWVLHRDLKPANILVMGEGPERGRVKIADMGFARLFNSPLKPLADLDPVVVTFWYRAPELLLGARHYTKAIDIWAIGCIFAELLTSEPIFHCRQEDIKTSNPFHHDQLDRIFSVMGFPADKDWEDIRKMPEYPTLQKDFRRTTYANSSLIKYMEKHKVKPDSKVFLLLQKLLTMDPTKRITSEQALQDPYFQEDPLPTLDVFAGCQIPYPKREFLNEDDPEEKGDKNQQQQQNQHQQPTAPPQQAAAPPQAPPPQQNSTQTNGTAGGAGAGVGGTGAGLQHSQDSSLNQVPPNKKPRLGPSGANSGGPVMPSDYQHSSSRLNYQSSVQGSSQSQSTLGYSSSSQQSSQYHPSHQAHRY
# Chain of Cyclin-dependent kinase 9 (P50750 whole entry): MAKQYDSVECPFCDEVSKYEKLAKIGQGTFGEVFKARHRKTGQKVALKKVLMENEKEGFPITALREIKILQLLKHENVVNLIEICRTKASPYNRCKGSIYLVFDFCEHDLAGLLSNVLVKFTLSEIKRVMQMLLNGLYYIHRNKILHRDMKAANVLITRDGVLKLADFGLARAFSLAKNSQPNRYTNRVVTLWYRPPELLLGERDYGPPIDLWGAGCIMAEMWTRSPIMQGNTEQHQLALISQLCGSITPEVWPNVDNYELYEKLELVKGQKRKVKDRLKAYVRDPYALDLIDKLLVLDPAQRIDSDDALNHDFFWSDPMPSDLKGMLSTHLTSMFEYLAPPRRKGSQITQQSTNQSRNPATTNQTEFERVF
smiles,measurement,setting,value
CN1CCN(C(=O)c2cc(CNc3ncnc4ccc(C#N)cc34)ccc2Cl)CC1,solubility,[1],Soluble
N#Cc1ccc2ncnc(NCCc3ccc(C(=O)N4CCC(N)C4)cc3)c2c1 (stereo not given),solubility,[2],Soluble
CN(C)CCNC(=O)c1ccc(CCNc2ncnc3ccc(C#N)cc23)cc1,solubility,[2],Soluble
COCCNC(=O)c1ccc(CCNc2ncnc3ccc(C#N)cc23)cc1,solubility,[2],Soluble
N#Cc1ccc2ncnc(NCc3ccc(Cl)c(C(=O)N4CCOCC4)c3)c2c1,solubility,[3],Soluble
CN(C)C(=O)c1ccc(CCNc2ncnc3ccc(C#N)cc23)cc1,solubility,[2],Soluble
N#Cc1ccc2ncnc(NCCc3ccc(C(=O)N4CCOCC4)cc3)c2c1,solubility,[2],Soluble
CN1CCN(C(=O)c2ccc(CCNc3ncnc4ccc(C#N)cc34)cc2)CC1,solubility,[2],Soluble
N#Cc1ccc2ncnc(NCCc3ccc4cc(C(=O)N5CCOCC5)ccc4c3)c2c1,solubility,[1],Soluble
COc1cccc2c1C(=O)c1c(O)c3c(c(O)c1C2=O)C[C@@](O)(C(=O)CO)C[C@@H]3O[C@H]1C[C@H](N)[C@H](O)[C@H](C)O1 [DOXORUBICIN],Activity,[4],15%
same,Activity,MDA-MB-468 [5],Active
same,Activity,MDA-MB-231 [6],Active
same,Activity,MDA-MB-468 [7],Active
CN1CCN(C(=O)c2ccc3cc(CCNc4ncnc5ccc(C#N)cc45)ccc3c2)CC1 [SENEXIN B],Activity,[8],Non-Toxic
same,Activity,[9],Non-Toxic
same,Activity,[10],25%
same,Activity,[11],Non-Toxic
same,Kd,[12],140 nM
same,Kd,[13],Not Active
same,Activity,MDA-MB-468 [14],Active
same,Activity,MDA-MB-468 [15],Active
same,AUC,[16],14100 ng·h/mL
same,concentration,[17],50 µM
same,growth inhibition (GI),MDA-MB-157,Dose-Dependent Effect
same,Activity,MDA-MB-231 [18],Active
same,IC50,[19],24 nM
same,inhibition,[20],Dose-Dependent Effect
same,Activity,[21],Non-Toxic
same,Activity,MDA-MB-231 [22],Active
same,growth inhibition (GI),4T1,inactive
same,solubility,[3],Soluble
same,Activity,[23],20%
same,Activity,[24],Non-Toxic
same,Activity,MDA-MB-468 [25],Active
same,Activity,MDA-MB-468 [26],Active
same,Activity,A549,Active
same,growth inhibition (GI),MDA-MB-468 [27],Dose-Dependent Effect
same,Activity,[28],Non-Toxic
same,Activity,MDA-MB-468 [29],Active
same,Activity,MDA-MB-468 [30],Active
same,Activity,[31],Non-Toxic
same,inhibition,[32],97.8%
same,inhibition,[33],98.6%
same,Activity,MDA-MB-468 [34],Active
same,inhibition,[35],Active
